Patent US20200165312A1, “COSMETIC COMPOSITION FOR IMPROVING SKIN CONDITIONS COMPRISING FUSION PROTEIN INCLUDING SKIN PENETRATION ENHANCING PEPTIDE” (LG HOUSEHOLD & HEALTH CARE LTD., priority 2017, published 2020)

Assays:
skin keratinocytes = assay: Keratinocyte growth (skin barrier strengthening), Cell Counter Kit-8; assay type: cell-based; settings: 100 ng/mL T-IGF-1 or IGF-1, one day; control = 100
Method: (§1) Specifically, skin keratinocytes were cultured in a 96-well plate for one day to obtain cultures at a density of 6,000 cells per well. The cultures were washed with PBS and cultured in a serum-free DMEM medium for one day. The cells were washed with PBS again and cultured in a serum-free DMEM medium supplemented with 100 ng/mL T-IGF-1 or IGF-1 for one day. The cultures were obtained therefrom and a difference between proliferated amounts of cells was quantitively analyzed using the Cell Counter Kit-8 (Dojindo). Here, skin keratinocytes cultured in a serum-free DMEM medium without T-IGF-1 or IGF-1 were used as a control (Table 14).
Specifically, skin keratinocytes were cultured in a 96-well plate for 24 hours to obtain cultures at a density of 6,000 cells per well.
as §1, with “The” for “Specifically, skin keratinocytes were cultured in a 96-well plate for one day to obtain cultures at a density of 6,000 cells per well. The”, “T-KGF” for “T-IGF-1”, “KGF” for “IGF-1”, “18).” for “14).”

[1] = Skin penetrability of growth factor fusion proteins (Franz glass cell, ELISA); assay type: in vitro ADME, porcine; settings: for Penetrated amount (%): 2 μg, 16 hours
Method: (§2) Specifically, porcine skin (thickness: 0.7 mm, Medikinetics) was placed between upper and lower ends of Franz glass cell (standard diameter: 9 mm, Receiver 5 mL, Permegear), and TBS (50 mM Tris pH 7.5, 150 mM NaCl) including 1% BSA and 0.01% Tween 20 was prepared. Then, 500 μL of the TBS was applied to the upper end of the glass cell (Donor chamber), and 5 mL of the TBS was applied to the lower end of the glass cell, (Receiver chamber). Subsequently, 2 μg of PDGFa or T-PDGFa was applied to the upper end of the glass cell, followed by reaction for 16 hours. Then, a concentration of PDGFa or T-PDGFa was quantitatively analyzed using the ELISA kit (R&D Systems), and a relative amount of T-PDGFa to PDGFa was calculated as a penetrated amount (Table 7).
Specifically, porcine skin (thickness: 0.7 mm, Medikinetics) was placed between upper and lower ends of Franz glass cell (standard diameter: 9 mm, Receiver 5 mL, Permegear), and TBS (50 mM Tris pH 7.5, 150 mM NaCl) including 1% BSA and 0.01% Tween 20 was prepared. Then, 500 μL of the TBS was applied to the upper end of the glass cell (Donor chamber), and 5 mL of the TBS was applied to the lower end of the glass cell, (Receiver chamber).
as §2, with “IGF-1” for “PDGFa”, “T-IGF-1” for “T-PDGFa”, “16).” for “7).”
as §2, with “KGF” for “PDGFa”, “T-KGF” for “T-PDGFa”, “20).” for “7).”
as §2, with “Tβ4” for “PDGFa”, “T-Tβ4” for “T-PDGFa”, “24).” for “7).”

dermal fibroblasts = assay: Collagen production in dermal fibroblasts (ELISA); assay type: cell-based, human; settings: 10 ng/mL, serum-free DMEM, two days; control = 100
Method: Specifically, dermal fibroblasts were inoculated onto a 24-well plate and cultured for 24 hours to obtain cultures having a saturation degree of 70 to 80%. The cultures were washed with PBS and cultured in a serum-free DMEM medium including 10 ng/mL T-PDGFa or PDGFa for two days. A supernatant was obtained therefrom and the amount of collagen produced and released in the culture solution was quantitively analyzed using an ELISA kit (R&D Systems) (Table 4).

[2] = system: human umbilical vein endothelial cells; assay: Endothelial cell proliferation, Cell Counter Kit-8; assay type: cell-based; settings: for Proliferation (%): 100 ng/mL T-Tβ4 or Tβ4, serum-free M199, one day, control = 100
Method: Specifically, human umbilical vein endothelial cells were inoculated onto a 96-well plate and cultured for 24 hours to obtain cultures at a density of 5,000 cells per well. The cultures were washed with PBS and cultured in a serum-free M199 medium for 16 hours. […] The cultures were obtained therefrom and a difference between proliferated amounts of cells was quantitively analyzed using the Cell Counter Kit-8 (Dojindo).
Specifically, human umbilical vein endothelial cells were inoculated onto a 96-well plate and cultured for 24 hours to obtain cultures at a density of 5,000 cells per well. The cultures were washed with PBS and cultured in a serum-free M199 medium for 16 hours. The cells were washed with PBS again and cultured in a serum-free M199 medium supplemented with 100 ng/mL T-Tβ4 or Tβ4 for one day. The cultures were obtained therefrom and a difference between proliferated amounts of cells was quantitively analyzed using the Cell Counter Kit-8 (Dojindo). Here, human umbilical vein endothelial cells cultured in a serum-free M199 medium without T-Tβ4 or Tβ4 were used as a control (Table 22).

IGF-1: insulin-like growth factor-1 having an amino acid sequence of SEQ ID NO: 41
Production (%) (keratinocyte growth) (skin keratinocytes): 250 ± 20% | Penetrated amount (%) ([1]; relative to IGF-1): 100 ± 14%

PDGFa: platelet-derived growth factor subunit a having an amino acid sequence of SEQ ID NO: 35
Production (%) of collagen (dermal fibroblasts): 264 ± 17% | Penetrated amount (%) ([1]; relative to PDGFa): 100 ± 29%

T-Tβ4: SEQ ID NO: 1 peptide C-terminal linked to N-terminal of Tβ4 via GG linker (NGSLNTHLAPILGGSDKPDMAEIEKFDKSKLKKTETQEKNPLPSKETIEQEKQAGES; Synthetic Fusion protein of T-T beta 4)
Proliferation (%) [2]: 165 ± 17% | cell proliferation effect compared with the unfused protein ([2]; human umbilical vein endothelial cells, 100 ng/mL): same level | Penetrated amount (%) ([1]; relative to Tβ4): 310 ± 28% | skin penetrability compared with the unfused protein ([1]; summary of Tables 7, 12, 16, 20, 24): about three times higher

Tβ4: thymosin beta 4 having an amino acid sequence of SEQ ID NO: 47
Proliferation (%) [2]: 180 ± 8% | Penetrated amount (%) ([1]; relative to Tβ4): 100 ± 21%
